# How the values were obtained:
# 5-HT1A receptor [1] = target: T1, 5-HT1A receptor (Rattus norvegicus, UniProt P19327); test: 5-HT1A receptor binding activity in rat hippocampal membrane homogenate; design: from tissue
# T1 sequence (P19327 1-422): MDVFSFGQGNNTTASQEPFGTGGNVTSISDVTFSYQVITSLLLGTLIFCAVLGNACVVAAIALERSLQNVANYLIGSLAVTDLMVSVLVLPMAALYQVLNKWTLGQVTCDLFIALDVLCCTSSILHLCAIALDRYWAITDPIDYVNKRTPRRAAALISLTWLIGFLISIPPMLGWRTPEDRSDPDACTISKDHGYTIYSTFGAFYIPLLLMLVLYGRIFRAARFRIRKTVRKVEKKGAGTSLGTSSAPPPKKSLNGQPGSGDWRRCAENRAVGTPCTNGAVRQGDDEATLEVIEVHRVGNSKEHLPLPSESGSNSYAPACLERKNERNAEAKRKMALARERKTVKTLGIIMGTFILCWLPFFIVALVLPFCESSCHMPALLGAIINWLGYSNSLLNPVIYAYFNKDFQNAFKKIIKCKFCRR
# Method: The compounds of the invention are tested for 5-HT1A receptor binding activity in rat hippocampal membrane homogenate by the method of B. S. Alexander and M. D. Wood, J Pharm Pharmacol, 1988, 40, 888-891.
# 5-HT1A receptor [2] = target: T1, 5-HT1A receptor; test: 5-HT1A receptor antagonism: antagonism of 8-hydroxy-2-(di-n-propylamino)-tetralin (8-OH DPAT) syndrome in the rat; type: in vivo; design: syndrome in the rat; from tissue; host or cells: whole living rat (in vivo); conditions: sc, antagonism of 8-OH DPAT syndrome, read-out: median effective dose
# Method: The compounds are also tested for 5-HT1A receptor antagonism activity in a test involving the antagonism of 8-hydroxy-2-(di-n-propylamino)-tetralin (8-OH DPAT) syndrome in the rat.
structure (smiles),measurement,setting,value
"COC(=O)c1cc2c(N3CCN(CCC(C(=O)N4CCCCCC4)c4ccccc4)CC3)cccc2[nH]1 (racemic) [Example 5, 4-[4-(4-Azepan-1-yl-4-oxo-3-phenylbutyl)piperazin-1-yl]-1H-indole-2-carboxylic acid methyl ester]",IC50,5-HT1A receptor [1],0.72 nM
same,ED50,5-HT1A receptor [2],0.3 mg/kg
